In ChEMBL document CHEMBL3525899, “Identification of the cytochrome P450 and other enzymes involved in the in vitro oxidative metabolism of a novel antidepressant, Lu AA21004” (Drug Metab Dispos, 2012):

Legend:
Liver microsome [1] = test: Drug metabolism in pooled human liver microsomes assessed as formation of (3-methyl-4-(2-(piperazin-1-yl)phenylthio)phenyl)methanol after 30 mins by Michaelis-Menten plot analysis in presence of NADPH regenerating system with NADP+; format: ADME; details: 0.5 h, read-out: Km(app)
Cytochrome P450 2C19 = Cytochrome P450 2C19 (Homo sapiens, UniProt P33261); test: Activity of human recombinant CYP2C19 expressed in microsomes isolated from human AHH-1 cells assessed as enzyme-mediated 4-(2-(2,4-dimethylphenylthio)phenyl)piperazin-1-ol formation at 8 to 50 uM after 120 mins by HPLC/MS-MS analysis in presence of NADPH regenerating system with NADP+; format: ADME, cell-free; details: 2 h
Cytochrome P450 2C19, sequence (P33261 whole entry): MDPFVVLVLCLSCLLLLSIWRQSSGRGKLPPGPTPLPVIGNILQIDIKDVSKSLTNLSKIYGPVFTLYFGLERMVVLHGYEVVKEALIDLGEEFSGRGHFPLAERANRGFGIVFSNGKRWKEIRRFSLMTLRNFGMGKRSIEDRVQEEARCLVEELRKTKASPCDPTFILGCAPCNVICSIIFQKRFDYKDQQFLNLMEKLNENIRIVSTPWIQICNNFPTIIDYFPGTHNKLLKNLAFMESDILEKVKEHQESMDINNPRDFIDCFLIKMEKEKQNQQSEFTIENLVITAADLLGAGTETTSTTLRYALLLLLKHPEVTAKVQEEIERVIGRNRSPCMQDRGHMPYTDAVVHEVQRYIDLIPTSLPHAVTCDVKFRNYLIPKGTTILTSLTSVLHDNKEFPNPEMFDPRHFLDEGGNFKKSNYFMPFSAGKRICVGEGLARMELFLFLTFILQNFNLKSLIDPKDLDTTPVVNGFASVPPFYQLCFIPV

Cytochrome P450 2A6 = target: T1, Cytochrome P450 2A6 (Homo sapiens, UniProt P11509); test: Activity of human recombinant CYP2A6 expressed in microsomes isolated from human AHH-1 cells assessed as enzyme-mediated 1-(2-(2,4-dimethylphenylsulfinyl)phenyl)piperazine formation at 8 to 50 uM after 120 mins by HPLC/MS-MS analysis in presence of NADPH regenerating system with NADP+; format: ADME, cell-free; details: 2 h
T1 sequence (P11509 whole entry): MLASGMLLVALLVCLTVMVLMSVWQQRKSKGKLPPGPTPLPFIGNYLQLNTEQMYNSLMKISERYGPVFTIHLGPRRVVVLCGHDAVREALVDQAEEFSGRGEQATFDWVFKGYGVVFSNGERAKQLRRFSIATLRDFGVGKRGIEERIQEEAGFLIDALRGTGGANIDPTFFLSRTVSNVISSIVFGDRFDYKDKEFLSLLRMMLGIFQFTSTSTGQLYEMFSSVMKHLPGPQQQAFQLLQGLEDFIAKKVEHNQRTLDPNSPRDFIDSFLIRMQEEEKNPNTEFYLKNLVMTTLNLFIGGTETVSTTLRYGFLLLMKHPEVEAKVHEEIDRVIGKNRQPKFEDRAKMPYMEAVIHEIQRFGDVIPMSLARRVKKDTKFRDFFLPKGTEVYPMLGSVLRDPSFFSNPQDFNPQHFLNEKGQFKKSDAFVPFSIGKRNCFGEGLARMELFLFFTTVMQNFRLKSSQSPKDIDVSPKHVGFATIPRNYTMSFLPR

Liver microsome [2] = test: Drug metabolism in pooled human liver microsomes assessed as formation of (3-methyl-4-(2-(piperazin-1-yl)phenylthio)phenyl)methanol at 100 uM after 30 to 180 mins by HPLC/MS-MS analysis in presence of NADPH regenerating system with NADP+; format: ADME
[3] = target: T2, Flavin-containing monooxygenase 3 (Homo sapiens, UniProt P31513); test: (§1) Activity of human recombinant FMO3 expressed in microsomes isolated from baculovirus infected insect BTI-TN-5B1-4 cells assessed as enzyme-mediated 3-methyl-4-(2-(piperazin-1-yl)phenylthio)benzoic acid formation at 8 to 50 uM after 120 mins by HPLC/MS-MS analysis in presence of NADPH regenerating system with NADP+; format: ADME; details: 2 h
T2 sequence (P31513 whole entry): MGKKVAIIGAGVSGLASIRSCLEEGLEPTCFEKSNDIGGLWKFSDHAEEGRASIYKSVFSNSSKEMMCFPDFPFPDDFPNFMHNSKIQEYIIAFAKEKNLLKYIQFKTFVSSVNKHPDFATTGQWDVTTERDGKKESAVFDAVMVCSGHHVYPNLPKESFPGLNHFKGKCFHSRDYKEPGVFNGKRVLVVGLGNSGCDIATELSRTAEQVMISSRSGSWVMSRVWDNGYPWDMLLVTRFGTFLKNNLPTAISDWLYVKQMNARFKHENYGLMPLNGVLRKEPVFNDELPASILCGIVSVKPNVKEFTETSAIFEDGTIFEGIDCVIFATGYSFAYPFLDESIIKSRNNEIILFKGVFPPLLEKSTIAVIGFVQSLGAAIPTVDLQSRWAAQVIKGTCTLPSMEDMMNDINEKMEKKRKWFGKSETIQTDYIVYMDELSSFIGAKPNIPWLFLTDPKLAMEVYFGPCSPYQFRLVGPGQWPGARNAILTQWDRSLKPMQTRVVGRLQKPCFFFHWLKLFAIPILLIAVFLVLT

Liver microsome [4] = test: Drug metabolism in pooled human liver microsomes assessed as formation of 3-methyl-4-(2-(piperazin-1-yl)phenylthio)benzoic acid at 100 uM after 30 to 180 mins by HPLC/MS-MS analysis in presence of NADPH regenerating system with NADP+; format: ADME
Cytochrome P450 2B6 [5] = target: T3, Cytochrome P450 2B6 (Homo sapiens, UniProt P20813); test: Activity of human recombinant CYP2B6 expressed in microsomes isolated from human AHH-1 cells assessed as enzyme-mediated 4-(2-(2,4-dimethylphenylthio)phenyl)piperazin-1-ol formation at 8 to 50 uM after 120 mins by HPLC/MS-MS analysis in presence of NADPH regenerating system with NADP+; format: ADME, cell-free; details: 2 h
T3 sequence (P20813 whole entry): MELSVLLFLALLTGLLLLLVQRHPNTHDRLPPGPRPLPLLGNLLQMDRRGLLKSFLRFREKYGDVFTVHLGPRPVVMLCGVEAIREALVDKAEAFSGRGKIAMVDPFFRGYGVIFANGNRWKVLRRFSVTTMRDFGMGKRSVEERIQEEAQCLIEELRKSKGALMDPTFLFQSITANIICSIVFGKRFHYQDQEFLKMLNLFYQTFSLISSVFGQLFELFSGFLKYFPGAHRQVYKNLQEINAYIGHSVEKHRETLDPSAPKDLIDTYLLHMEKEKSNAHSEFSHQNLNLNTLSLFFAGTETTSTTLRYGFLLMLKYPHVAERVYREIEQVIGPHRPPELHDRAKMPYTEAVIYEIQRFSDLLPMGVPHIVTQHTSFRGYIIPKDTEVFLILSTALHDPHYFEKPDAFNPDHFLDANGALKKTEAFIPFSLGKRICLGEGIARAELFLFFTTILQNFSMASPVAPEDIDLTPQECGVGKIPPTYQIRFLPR

Cytochrome P450 2E1 = Cytochrome P450 2E1 (Homo sapiens, UniProt P05181); test: Activity of human recombinant CYP2E1 expressed in microsomes isolated from human AHH-1 cells assessed as enzyme-mediated 1-(2-(2,4-dimethylphenylsulfinyl)phenyl)piperazine formation at 8 to 50 uM after 120 mins by HPLC/MS-MS analysis in presence of NADPH regenerating system with NADP+; format: ADME, cell-free; details: 2 h
Cytochrome P450 2E1, sequence (P05181 whole entry): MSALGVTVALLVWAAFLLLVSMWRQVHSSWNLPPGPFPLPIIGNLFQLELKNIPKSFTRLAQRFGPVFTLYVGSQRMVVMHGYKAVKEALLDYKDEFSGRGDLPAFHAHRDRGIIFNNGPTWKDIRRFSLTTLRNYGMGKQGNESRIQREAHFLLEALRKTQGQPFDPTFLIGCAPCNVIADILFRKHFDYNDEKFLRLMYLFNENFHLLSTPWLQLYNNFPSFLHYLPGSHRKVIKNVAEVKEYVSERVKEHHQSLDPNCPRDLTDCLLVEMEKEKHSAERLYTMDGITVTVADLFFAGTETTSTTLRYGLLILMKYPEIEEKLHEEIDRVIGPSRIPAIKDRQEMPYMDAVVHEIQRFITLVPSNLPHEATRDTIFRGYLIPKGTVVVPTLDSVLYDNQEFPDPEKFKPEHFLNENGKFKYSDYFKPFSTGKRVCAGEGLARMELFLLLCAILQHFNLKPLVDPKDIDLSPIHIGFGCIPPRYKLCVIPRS

[6] = target: T2, Flavin-containing monooxygenase 3; test: as §1, with “3-(2,4-dimethylphenylthio)-4-(piperazin-1-yl)phenol” for “3-methyl-4-(2-(piperazin-1-yl)phenylthio)benzoic acid”; format: ADME; details: 2 h
Liver microsome [7] = test: Drug metabolism in pooled human liver microsomes assessed as formation of 3-(2,4-dimethylphenylthio)-4-(piperazin-1-yl)phenol after 30 mins by Michaelis-Menten plot analysis in presence of NADPH regenerating system with NADP+; format: ADME; details: 0.5 h, read-out: Km(app)
Cytochrome P450 2C9 = Cytochrome P450 2C9 (Homo sapiens, UniProt P11712); test: Activity of human recombinant CYP2C9 expressed in microsomes isolated from human AHH-1 cells assessed as enzyme-mediated 4-(2-(2,4-dimethylphenylthio)phenyl)piperazin-1-ol formation at 8 to 50 uM after 120 mins by HPLC/MS-MS analysis in presence of NADPH regenerating system with NADP+; format: ADME, cell-free; details: 2 h
Cytochrome P450 2C9, sequence (P11712 whole entry): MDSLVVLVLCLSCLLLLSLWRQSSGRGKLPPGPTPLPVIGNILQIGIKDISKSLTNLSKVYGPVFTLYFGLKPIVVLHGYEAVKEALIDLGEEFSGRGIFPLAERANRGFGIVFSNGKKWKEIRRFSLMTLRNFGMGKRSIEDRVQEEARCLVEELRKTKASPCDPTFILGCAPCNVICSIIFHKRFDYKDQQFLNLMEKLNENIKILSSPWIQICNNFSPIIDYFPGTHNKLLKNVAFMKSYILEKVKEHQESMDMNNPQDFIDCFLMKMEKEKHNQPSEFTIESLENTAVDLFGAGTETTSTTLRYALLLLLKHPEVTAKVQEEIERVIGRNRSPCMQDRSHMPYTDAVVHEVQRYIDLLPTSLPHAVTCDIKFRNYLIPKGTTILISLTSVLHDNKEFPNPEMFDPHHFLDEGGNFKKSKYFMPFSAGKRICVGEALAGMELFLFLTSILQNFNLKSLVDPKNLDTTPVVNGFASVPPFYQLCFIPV

Cytochrome P450 2B6 [8] = target: T3, Cytochrome P450 2B6; test: Activity of human recombinant CYP2B6 expressed in microsomes isolated from human AHH-1 cells assessed as enzyme-mediated 1-(2-(2,4-dimethylphenylsulfinyl)phenyl)piperazine formation at 8 to 50 uM after 120 mins by HPLC/MS-MS analysis in presence of NADPH regenerating system with NADP+; format: ADME, cell-free; details: 2 h

Km (Liver microsome [1]): 231 µM
Drug metabolism (Cytochrome P450 2C19): metabolite_detected
Drug metabolism (Cytochrome P450 2A6): metabolite_detected
Drug metabolism (Liver microsome [2]): metabolite_detected
Drug metabolism [3]: metabolite_not_detected
Drug metabolism (Liver microsome [4]): metabolite_detected
Drug metabolism (Cytochrome P450 2B6 [5]): metabolite_detected
Drug metabolism (Cytochrome P450 2E1): metabolite_not_detected
Drug metabolism [6]: metabolite_not_detected
Km (Liver microsome [7]): 323 µM
Drug metabolism (Cytochrome P450 2C9): metabolite_detected
Drug metabolism (Cytochrome P450 2B6 [8]): metabolite_not_detected
SMILES: Br.Cc1ccc(Sc2ccccc2N2CCNCC2)c(C)c1 [VORTIOXETINE HYDROBROMIDE]
